From patent US5206260A, “Hexahydropyrrolo[2,3-b]indole derivatives” (priority 1991, dated 1993)

Legend:
[1] = background statement, cited from earlier work
[2] = Somani et al., 1989; cited from earlier work
[3] = Metabolites of heptylphysostigmine (dog urine after oral dosing; canine liver microsomes); format: in vivo; details: mammalian metabolites
Description: The foregoing metabolites were originally isolated from dog urine following oral dosing with trimethyl-1,3a,8-hexahydro-1,2,3,3a,8,8a-pyrrol-[2,3-b]indole-5(3aS,8aR)heptylcarbamate at dosage levels of 1 mg/kg/day. Some of these compounds were also isolated from an incubation mixture of canine liver microsomes and trimethyl-1,3a,8-hexahydro-1,2,3,3a,8,8a-pyrrol[2,3-b]indole-5(3aS,8aR)-heptylcarbamate at a concentration of 10 μM in the presence of MgCl2 and NADPH in a buffer of approximately neutral pH at approximately 30°-40° C. The compounds were isolated from the biological matrix by selective solid phase or solvent extraction and purified by liquid chromatography (LC) using different mobile phase conditions. The procedures and the results of these experiments are noted in Examples 1-3.
Incubation of heptylphysostigmine with dog liver microsomes or 9,000×g supernatant fractions was performed to generate metabolites. The incubation mixture contained 100 μmoles of potassium phosphate, pH 7.4, 3 μmoles of MgCl2, 0.5 μmole of NADPH, 1 mg microsomal or 4 mg S9 protein and 10 nmols of ^3 H-heptylphysostigmine in a final volume of 1.0 ml. The incubations were carried out at 37° C. and 120 rpm for 10, 30 or 60 minutes. At the end of the incubation period, metabolites were extracted with a 2:1 mixture of ethyl acetate and acetone. […]

## CNC(=O)Oc1ccc2c(c1)[C@]1(C)CCN(C)[C@@H]1N2C [physostigmine, trimethyl-1,3a,8-hexahydro-1,2,3,3a,8,8a-pyrrol[2,3-b]indole-5(3aS,8aR)methylcarbamate]
[1]
  half-life of effect: short half-life of effect
[1]; particularly towards the digestive system
  side-effects: severe dose-limiting side-effects
[2]
  metabolites reported: metabolized to eseroline and at least three other unknown metabolites

## CCCCCCCNC(=O)Oc1ccc2c(c1)[C@]1(C)CCN(C)[C@@H]1N2C [heptylphysostigmine, trimethyl-1,3a,8-hexahydro-1,2,3,3a,8,8a-pyrrol[2,3-b]indole-5(3aS,8aR) heptylcarbamate]
[3]
  metabolites discovered: eseroline and eseroline glucuronide were also discovered among the mammalian metabolites
